Legend:
Test in all cases: Expression of OA chondrocyte phenotype marker genes by RT-qPCR after peptide exposure
Format in all cases: cell-based, human
[1] = tested on: OA articular chondrocytes; set-up: key: [—] denotes the absence of a significant effect or a significantly decreased expression of chondrogenic marker BAPX1/NKX3.2 or an increased expression of OA chondrocyte phenotypic markers ALP, MMP13, ADAMTS5, COX2, COL10A and RUNX2 in OA articular chondrocytes, in comparison to untreated OA articular chondrocyts; conditions: Table 1, 20-mer peptides with native cysteines; vs untreated OA articular chondrocytes
Experimental: (§1) The action of 20-mer peptides (10 nM) of SEQ ID NO: 2-15 (peptides with 1 amino acids intervals (19 amino acid overlap)) and SEQ ID NO:49 on the expression of the indicated genes was determined on a validated pool of passage 2 OA human articular chondrocytes (n=18) and compared to full-length recombinant BMP-7 (1 nM). Samples were harvested after 24 hours and analyzed for indicated genes by RT-qPCR (corrected for 28S rRNA expression and relative to control conditions (no peptide exposure)). In the graphs, numbers on the x-axis represent individual peptides according to their SEQ ID NO:, error bars represent mean±SEM, statistical differences were calculated (one-way ANOVA with bonferroni correction) to control condition. *=p<0.05 lower than control condition for COL10A1, ALP, RUNX2, COX-2, MMP13 and ADAMTS5 and higher than control condition for BAPX1/NKX3.2. Random peptide is a peptide according to SEQ ID NO: 49 with amino acid sequence […].

[2] = tested on: OA articular chondrocytes; set-up: key: [—] denotes the absence of a significant effect or a significantly decreased expression of chondrogenic marker BAPX1/NKX3.2 or an increased expression of OA chondrocyte phenotypic markers ALP, MMP13, ADAMTS5, COX2, COL10A and RUNX2 in OA articular chondrocytes, in comparison to untreated OA articular chondrocyts; conditions: Table 1, 20-mer peptides with native cysteines; vs untreated OA articular chondrocytes; remark: listed apart in the source
[3] = tested on: OA articular chondrocytes; set-up: key to ADAMTS5 expression: [+] denotes a significantly increased expression of chondrogenic marker BAPX1/NKX3.2 or a decreased expression of OA chondrocyte phenotypic markers ALP, MMP13, ADAMTS5, COX2, COL10A and RUNX2 in OA articular chondrocytes, in comparison to untreated OA articular chondrocytes.; [−] denotes the absence of a significant effort or a significantly decreased expression of chondrogenic marker BAPX1/NKX3.2 or an increased expression of OA chondrocyte phenotypic markers ALP, MMP13, ADAMTS5, COX2, COL10A and RUNX2 in OA articular chondrocytes, in comparison to untreated OA articular chondrocytes; conditions: Table 3, N- and C-terminally truncated peptides; vs untreated OA articular chondrocytes
[4] = tested on: OA articular chondrocytes; set-up: key: [+] denotes a significantly increased expression of chondrogenic marker BAPX1/NKX3.2 or a decreased expression of OA chondrocyte phenotypic markers ALP, MMP13, ADAMTS5, COX2, COL10A and RUNX2 in OA articular chondrocytes, in comparison to untreated OA articular chondrocytes.; [−] denotes the absence of a significant effort or a significantly decreased expression of chondrogenic marker BAPX1/NKX3.2 or an increased expression of OA chondrocyte phenotypic markers ALP, MMP13, ADAMTS5, COX2, COL10A and RUNX2 in OA articular chondrocytes, in comparison to untreated OA articular chondrocytes; conditions: vs untreated OA articular chondrocytes
[5] = tested on: OA articular chondrocytes; set-up: key: [+] denotes a significantly increased expression of chondrogenic marker BAPX1/NKX3.2 or a decreased expression of OA chondrocyte phenotypic markers ALP, MMP13, ADAMTS5, COX2, COL10A and RUNX2 in OA articular chondrocytes, in comparison to untreated OA articular chondrocytes.; [−] denotes the absence of a significant effort or a significantly decreased expression of chondrogenic marker BAPX1/NKX3.2 or an increased expression of OA chondrocyte phenotypic markers ALP, MMP13, ADAMTS5, COX2, COL10A and RUNX2 in OA articular chondrocytes, in comparison to untreated OA articular chondrocytes; conditions: Table 2 (FIGS. 2-8), peptide 10 nM, 24 hours, vs untreated OA articular chondrocytes
Experimental: as §1

[6] = Table 3, N- and C-terminally truncated peptides

“42 (VHFINPETVPKPCCAPTQLN; homo sapiens) [compound 42]” was tested, and the ADAMTS5 expression [1] was “—”, the ALP expression [2] was “—” and the BAPX1/NKX3.2 expression [2] was “—”. The COL10A expression [2] was “—”, the COX-2 expression [2] was “—” and the MMP13 expression [2] was “—”. For the same substance, the RUNX2 expression [2] was “—”.

For “20 (GYAAYYSEGESAFPLNS; homo sapiens) [compound 20]”, the ADAMTS5 expression [3] was “+”, the ALP expression [4, 6] was “+” and the BAPX1/NKX3.2 expression [4, 6] was “+”. For the same substance, the COL10A expression [4, 6] was “+”, the COX-2 expression [4, 6] was “+” and the MMP13 expression [4, 6] was “+”. For the same substance, the RUNX2 expression [4, 6] was “+”.

With “21 (YAAYYSEGESAFPLNS; homo sapiens) [compound 21]” the ADAMTS5 expression [3] was “+”, the ALP expression [4, 6] was “+” and the BAPX1/NKX3.2 expression [4, 6] was “+”. The COL10A expression [4, 6] was “+”, the COX-2 expression [4, 6] was “+” and the MMP13 expression [4, 6] was “+”. For the same substance, the RUNX2 expression [4, 6] was “+”.

With “25 (YSEGESAFPLNS; homo sapiens) [compound 25]” the ADAMTS5 expression [3] was “+”, the ALP expression [4, 6] was “+” and the BAPX1/NKX3.2 expression [4, 6] was “+”. The COL10A expression [4, 6] was “+”, the COX-2 expression [4, 6] was “+” and the MMP13 expression [4, 6] was “+”. For the same substance, the RUNX2 expression [4, 6] was “+”.

With “38 (EALRMANVAENSSSDQRQAC; homo sapiens) [compound 38]” the ADAMTS5 expression [1] was “—”, the ALP expression [2] was “—” and the BAPX1/NKX3.2 expression [2] was “—”. For the same substance, the COL10A expression [2] was “—”, the COX-2 expression [2] was “—” and the MMP13 expression [2] was “—”. The RUNX2 expression [2] was “—”.

With “22 (AAYYSEGESAFPLNS; homo sapiens) [compound 22]” the ADAMTS5 expression [3] was “+”, the ALP expression [4, 6] was “+” and the BAPX1/NKX3.2 expression [4, 6] was “+”. For the same substance, the COL10A expression [4, 6] was “+”, the COX-2 expression [4, 6] was “+” and the MMP13 expression [4, 6] was “+”. For the same substance, the RUNX2 expression [4, 6] was “+”.

In the case of “19 (EGYAAYYSEGESAFPLNS; homo sapiens) [compound 19]”, the ADAMTS5 expression [3] was “+”, the ALP expression [4, 6] was “+” and the BAPX1/NKX3.2 expression [4, 6] was “+”. For the same substance, the COL10A expression [4, 6] was “+”, the COX-2 expression [4, 6] was “+” and the MMP13 expression [4, 6] was “+”. The RUNX2 expression [4, 6] was “+”.

“43 (LNAISVLYFDDSSNVILKKY; homo sapiens) [compound 43]” was tested, and the ADAMTS5 expression [1] was “—”, the ALP expression [2] was “—” and the BAPX1/NKX3.2 expression [2] was “—”. For the same substance, the COL10A expression [2] was “—”, the COX-2 expression [2] was “—” and the MMP13 expression [2] was “—”. The RUNX2 expression [2] was “—”.

With “33 (YSEGESAFPLNSYMNATNHA; homo sapiens) [compound 33]” the ADAMTS5 expression [3] was “+”, the ALP expression [4, 6] was “+” and the BAPX1/NKX3.2 expression [4, 6] was “+”. For the same substance, the COL10A expression [4, 6] was “+”, the COX-2 expression [4, 6] was “+” and the MMP13 expression [4, 6] was “+”. For the same substance, the RUNX2 expression [4, 6] was “+”.

For “31 (YSEGESAFPLNSYMNATN; homo sapiens) [compound 31]”, the ADAMTS5 expression [3] was “+”, the ALP expression [4, 6] was “+” and the BAPX1/NKX3.2 expression [4, 6] was “+”. For the same substance, the COL10A expression [4, 6] was “+”, the COX-2 expression [4, 6] was “+” and the MMP13 expression [4, 6] was “+”. The RUNX2 expression [4, 6] was “+”.

“17 (APEGYAAYYSEGESAFPLNS; homo sapiens) [compound 17]” was tested, and the ADAMTS5 expression [3] was “+”, the ALP expression [4, 6] was “+” and the BAPX1/NKX3.2 expression [4, 6] was “+”. For the same substance, the COL10A expression [4, 6] was “+”, the COX-2 expression [4, 6] was “+” and the MMP13 expression [4, 6] was “−”. For the same substance, the RUNX2 expression [4, 6] was “+”.

With “26 (YSEGESAFPLNSY; homo sapiens) [compound 26]” the ADAMTS5 expression [3] was “+”, the ALP expression [4, 6] was “+” and the BAPX1/NKX3.2 expression [4, 6] was “+”. The COL10A expression [4, 6] was “+”, the COX-2 expression [4, 6] was “+” and the MMP13 expression [4, 6] was “+”. The RUNX2 expression [4, 6] was “+”.

For “44 (SSNVILKKYRNMVVRACGCH; homo sapiens) [compound 44]”, the ADAMTS5 expression [1] was “—”, the ALP expression [2] was “—” and the BAPX1/NKX3.2 expression [2] was “—”. The COL10A expression [2] was “—”, the COX-2 expression [2] was “—” and the MMP13 expression [2] was “—”. The RUNX2 expression [2] was “—”.

In the case of “36 (EGYAAYYSEGESAFPLNSYMNATNHA; homo sapiens) [compound 36]”, the ADAMTS5 expression [3] was “+”, the ALP expression [4, 6] was “+” and the BAPX1/NKX3.2 expression [4, 6] was “+”. For the same substance, the COL10A expression [4, 6] was “+”, the COX-2 expression [4, 6] was “+” and the MMP13 expression [4, 6] was “+”. For the same substance, the RUNX2 expression [4, 6] was “+”.

With “27 (YSEGESAFPLNSYM; homo sapiens) [compound 27]” the ADAMTS5 expression [3] was “+”, the ALP expression [4, 6] was “+” and the BAPX1/NKX3.2 expression [4, 6] was “+”. For the same substance, the COL10A expression [4, 6] was “+”, the COX-2 expression [4, 6] was “+” and the MMP13 expression [4, 6] was “+”. The RUNX2 expression [4, 6] was “+”.

In the case of “41 (FPLNSYMNATNHAIVQTLVH; homo sapiens) [compound 41]”, the ADAMTS5 expression [1] was “—”, the ALP expression [2] was “—” and the BAPX1/NKX3.2 expression [2] was “—”. For the same substance, the COL10A expression [2] was “—”, the COX-2 expression [2] was “—” and the MMP13 expression [2] was “—”. For the same substance, the RUNX2 expression [2] was “—”.

With “16 (YSEGESAFPLNS; homo sapiens) [compound 16]” the ADAMTS5 expression [5] was “+”, the ALP expression [5] was “+” and the BAPX1/NKX3.2 expression [5] was “+”. The COL10A expression [5] was “+”, the COX-2 expression [5] was “+” and the RUNX2 expression [5] was “+”. For the same substance, the ADAMTS5 expression [3] was “+”, the MMP13 expression ([4]; Table 2 (FIGS. 2-8), peptide 10 nM, 24 hours) was “+” and the ALP expression [4, 6] was “+”. For the same substance, the BAPX1/NKX3.2 expression [4, 6] was “+”, the COL10A expression [4, 6] was “+” and the COX-2 expression [4, 6] was “+”. The RUNX2 expression [4, 6] was “+”.

For “29 (YSEGESAFPLNSYMNA; homo sapiens) [compound 29]”, the ADAMTS5 expression [3] was “+”, the ALP expression [4, 6] was “+” and the BAPX1/NKX3.2 expression [4, 6] was “+”. The COL10A expression [4, 6] was “+”, the COX-2 expression [4, 6] was “+” and the MMP13 expression [4, 6] was “+”. The RUNX2 expression [4, 6] was “+”.

For “30 (YSEGESAFPLNSYMNAT; homo sapiens) [compound 30]”, the ADAMTS5 expression [3] was “+”, the ALP expression [4, 6] was “+” and the BAPX1/NKX3.2 expression [4, 6] was “+”. For the same substance, the COL10A expression [4, 6] was “+”, the COX-2 expression [4, 6] was “+” and the MMP13 expression [4, 6] was “+”. The RUNX2 expression [4, 6] was “+”.

For “23 (AYYSEGESAFPLNS; homo sapiens) [compound 23]”, the ADAMTS5 expression [3] was “+”, the ALP expression [4, 6] was “+” and the BAPX1/NKX3.2 expression [4, 6] was “+”. For the same substance, the COL10A expression [4, 6] was “+”, the COX-2 expression [4, 6] was “+” and the MMP13 expression [4, 6] was “+”. For the same substance, the RUNX2 expression [4, 6] was “+”.

With “24 (YYSEGESAFPLNS; homo sapiens) [compound 24]” the ADAMTS5 expression [3] was “+”, the ALP expression [4, 6] was “+” and the BAPX1/NKX3.2 expression [4, 6] was “+”. For the same substance, the COL10A expression [4, 6] was “+”, the COX-2 expression [4, 6] was “+” and the MMP13 expression [4, 6] was “+”. The RUNX2 expression [4, 6] was “+”.
